Results reported in ChEMBL document CHEMBL1201862, “PubChem BioAssay data set” (2004).
Calls of active or inactive are those of the source.

Tests used:
[1] = activation of miR-122 Renilla sensor silencing – cell-based, Huh7 psiCHECK-miR122, Renilla luciferase, cherry-picked, dose response (AID 651956); type: functional;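 note: huh7 hepatoma cells stably carrying a psiCHECK-2 miR-122 sensor plasmid; renilla luciferase signal reporting endogenous miR-122 activity after 48 h compound exposure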
[2] = target: T1, Carboxy-terminal domain RNA polymerase II polypeptide A small phosphatase 1 (Homo sapiens, UniProt Q9GZU7); assay: CTDSP1 inhibitors, concentration-response, biochemical, absorbance readout, ultra-high-throughput screen actives (AID 540297); type: functional
T1 sequence (Q9GZU7 whole entry): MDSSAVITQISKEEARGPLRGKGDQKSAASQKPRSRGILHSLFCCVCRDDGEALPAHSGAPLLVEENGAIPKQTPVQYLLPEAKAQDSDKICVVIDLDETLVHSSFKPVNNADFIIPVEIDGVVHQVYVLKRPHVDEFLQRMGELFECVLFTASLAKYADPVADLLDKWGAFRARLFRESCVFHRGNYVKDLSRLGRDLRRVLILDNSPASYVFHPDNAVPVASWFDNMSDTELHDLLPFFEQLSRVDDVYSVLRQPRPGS

[3] = target: T2, Low molecular weight phosphotyrosine protein phosphatase (Homo sapiens, UniProt P24666); type: functional; settings: read-out: IC50_Mean
T2 sequence (P24666 whole entry): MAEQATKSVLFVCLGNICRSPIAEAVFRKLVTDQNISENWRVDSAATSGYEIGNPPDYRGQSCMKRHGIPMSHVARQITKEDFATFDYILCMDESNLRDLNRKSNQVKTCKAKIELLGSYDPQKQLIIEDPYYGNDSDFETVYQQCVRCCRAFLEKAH

[4] = target: T2, Low molecular weight phosphotyrosine protein phosphatase; type: functional; settings: read-out: IC50_Mean; remark: listed apart in the source
[5] = target: T3, Tyrosine-protein phosphatase non-receptor type 22 (Homo sapiens, UniProt Q9Y2R2); assay: PTPN22 enzyme inhibitors – biochemical, fluorescence, LYP catalytic domain, selectivity assay for LMPTP inhibitor project, dose response (AID 652006); type: functional; settings: read-out: IC50_Mean
T3 sequence (Q9Y2R2 whole entry): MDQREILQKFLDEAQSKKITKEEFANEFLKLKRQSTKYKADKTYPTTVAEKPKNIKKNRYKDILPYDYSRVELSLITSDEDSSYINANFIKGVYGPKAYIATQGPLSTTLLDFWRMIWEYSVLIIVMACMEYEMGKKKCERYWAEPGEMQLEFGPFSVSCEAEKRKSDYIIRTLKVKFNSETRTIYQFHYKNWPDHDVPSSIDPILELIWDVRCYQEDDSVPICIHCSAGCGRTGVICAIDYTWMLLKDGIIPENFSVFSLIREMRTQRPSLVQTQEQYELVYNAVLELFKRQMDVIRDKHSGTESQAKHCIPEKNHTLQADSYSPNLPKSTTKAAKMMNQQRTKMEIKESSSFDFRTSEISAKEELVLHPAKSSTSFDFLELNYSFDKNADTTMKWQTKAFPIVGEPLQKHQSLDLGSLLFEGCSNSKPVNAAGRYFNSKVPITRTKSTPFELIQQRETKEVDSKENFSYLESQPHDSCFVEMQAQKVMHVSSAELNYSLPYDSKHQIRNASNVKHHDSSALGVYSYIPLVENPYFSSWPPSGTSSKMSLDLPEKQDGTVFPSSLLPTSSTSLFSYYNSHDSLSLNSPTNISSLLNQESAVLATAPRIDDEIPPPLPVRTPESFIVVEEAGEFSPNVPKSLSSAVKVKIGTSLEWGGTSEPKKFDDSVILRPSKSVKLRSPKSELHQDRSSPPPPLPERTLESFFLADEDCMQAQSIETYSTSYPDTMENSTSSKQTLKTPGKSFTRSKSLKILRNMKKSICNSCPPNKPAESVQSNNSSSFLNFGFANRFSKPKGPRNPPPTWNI

BHK-21 = assay: viability loss in BHK-21 cells – cell-based, plate reader, cherry-pick samples, cytotoxicity control, dose response (AID 687030); type: functional; settings: Mesocricetus auratus
A549 = assay: viability loss in A549 cells – cell-based, plate reader, cherry-pick samples, cytotoxicity control, dose response (AID 687028); type: functional; settings: Homo sapiens
[6] = target: ADP-ribosylation factor GTPase-activating protein 1 (Rattus norvegicus, UniProt Q62848); assay: Fluorescence polarization-based biochemical high throughput dose response screening assay to identify inhibitors of ADP-ribosylation factor GTPase activating protein 1 (ARFGAP1).; type: functional
[7] = target: T4, Matrix metalloproteinase-14 (Homo sapiens, UniProt P50281); assay: SAR confirmation of uHTS hits for a small molecule inhibitors of MT1-MMP activation in a fluorescence assay.; type: functional
[8] = target: T4, Matrix metalloproteinase-14; assay: Dose Response confirmation of uHTS hits for a small molecule inhibitors of MT1-MMP activation in a fluorescence assay set 1.; type: functional
[9] = target: SWI/SNF-related matrix-associated actin-dependent regulator of chromatin subfamily A member 2 (Homo sapiens, UniProt P51531); assay: Luminescence-based cell-based high throughput dose response assay to identify activators of the function of SWI/SNF related, matrix associated, actin dependent regulator of chromatin, subfamily a, member 2 (SMARCA2, BRM).; type: functional
[10] = Counterscreen for activators of the function of SWI/SNF related, matrix associated, actin dependent regulator of chromatin, subfamily a, member 2 (SMARCA2, BRM): Luminescence-based cell-based high throughput dose response assay to identify non-selective compounds using the VP16 reporter assay.; type: functional
cells [11] = type: functional, cell-based
cells [12] = type: functional, cell-based; remark: listed apart in the source
[13] = HGIII-sPLA2 enzyme inhibition potency – biochemical, QFRET, IC50, dose response (AID 743457);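 note: green fluorescence rise as the enzyme cleaves BODIPY PC-A2 in liposomes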
Paired box protein Pax-8 = Paired box protein Pax-8 (Homo sapiens, UniProt Q06710); assay: PAX8 transcriptional activity inhibition in RMG-I – RMG-I cells, luciferase, cherry-pick, dose response (AID 687027); type: functional, cell-based;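 note: luciferase reporter driven by Pax8 target thyroperoxidase promoter measured by SteadyGlo luminescence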
[14] = A2780 cell killing – plate reader, dry powder samples, cytotoxicity control, dose response (AID 743046); type: functional, cell-based
[15] = OVCAR-3 cell viability loss – plate reader, dry powder samples, PAX8 inhibitor project, dose response (AID 743044); type: functional, cell-based
[16] = IGROV1 cell killing – plate reader, dry powder samples, PAX8 inhibitor project, dose response (AID 743043); type: functional, cell-based; settings: IGROV-1
[17] = OVCAR8 cell viability loss – plate reader, dry powder samples, PAX8 project, dose response (AID 743197); type: functional, cell-based; settings: OVCAR-8
[18] = cytotoxicity in HEK293 background cells – cell-based, dry powder, set 2, counter-screen for EBV LMP1 inhibitor project, dose response (AID 624374); type: functional
[19] = A549 cell cytotoxicity, dose response, cytotoxicity control, plate reader, cherry-pick, antagonist series (AID 743412); type: functional, cell-based
[20] = inhibition of bursicon-driven LGR2 cAMP signaling – cell-based, HEK293, CRE-luciferase reporter, cherry pick, dose response (AID 743342); type: functional
Protein Wnt-3a = Protein Wnt-3a (Mus musculus, UniProt P27467); assay: SAR analysis of small molecule antagonists of Gli-SUFU in a Wnt3a luminescent reporter assay.; type: functional
[21] = potency of ADAM10 substrate cleavage blockers – biochemical, QFRET, dose response (AID 743254);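 note: ADAM10 enzyme with the DM2 quenched FRET peptide as substrate; EDANS fluorescence gain as the protease cuts the substrate; inhibitor potency against ADAM10 proteolytic activity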
[22] = target: Disintegrin and metalloproteinase domain-containing protein 17 (Homo sapiens, UniProt P78536); assay: inhibition of ADAM17 substrate cleavage – biochemical, quenched FRET substrate, counter-screen for ADAM10 exosite inhibitor project, dose response (AID 743253)
Chain of Disintegrin and metalloproteinase domain-containing protein 17 (P78536 whole entry, the tested form may be a part): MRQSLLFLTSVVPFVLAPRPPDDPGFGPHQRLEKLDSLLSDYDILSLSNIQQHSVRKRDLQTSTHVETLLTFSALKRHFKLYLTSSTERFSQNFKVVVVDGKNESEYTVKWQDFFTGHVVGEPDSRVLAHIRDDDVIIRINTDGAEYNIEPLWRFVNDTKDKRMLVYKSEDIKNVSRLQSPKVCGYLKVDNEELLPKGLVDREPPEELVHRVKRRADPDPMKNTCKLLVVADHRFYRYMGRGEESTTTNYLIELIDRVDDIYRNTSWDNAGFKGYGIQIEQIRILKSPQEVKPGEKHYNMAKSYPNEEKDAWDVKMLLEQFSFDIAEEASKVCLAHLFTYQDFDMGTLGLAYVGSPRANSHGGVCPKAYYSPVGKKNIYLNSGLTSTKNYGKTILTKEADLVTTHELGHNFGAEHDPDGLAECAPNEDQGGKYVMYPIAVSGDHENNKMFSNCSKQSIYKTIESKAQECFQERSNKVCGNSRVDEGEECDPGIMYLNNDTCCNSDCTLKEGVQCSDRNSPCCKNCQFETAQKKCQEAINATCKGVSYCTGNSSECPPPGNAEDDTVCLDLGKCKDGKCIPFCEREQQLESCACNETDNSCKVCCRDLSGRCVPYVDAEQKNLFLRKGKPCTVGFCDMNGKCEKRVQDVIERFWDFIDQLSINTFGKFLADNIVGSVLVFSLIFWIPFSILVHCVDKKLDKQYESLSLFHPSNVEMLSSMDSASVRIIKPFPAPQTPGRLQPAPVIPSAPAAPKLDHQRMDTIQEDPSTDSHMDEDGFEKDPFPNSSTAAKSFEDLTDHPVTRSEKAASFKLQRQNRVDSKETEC

Chain of Protein Wnt-3a (P27467 whole entry): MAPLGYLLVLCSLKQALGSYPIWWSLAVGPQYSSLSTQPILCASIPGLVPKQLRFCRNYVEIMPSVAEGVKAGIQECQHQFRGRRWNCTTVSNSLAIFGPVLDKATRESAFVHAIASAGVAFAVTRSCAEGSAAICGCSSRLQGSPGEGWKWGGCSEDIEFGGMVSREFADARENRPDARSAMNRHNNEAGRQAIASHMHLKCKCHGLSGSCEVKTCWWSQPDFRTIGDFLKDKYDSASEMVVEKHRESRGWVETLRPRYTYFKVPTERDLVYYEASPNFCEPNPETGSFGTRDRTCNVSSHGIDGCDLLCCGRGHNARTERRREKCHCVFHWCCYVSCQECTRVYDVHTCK
Chain of SWI/SNF-related matrix-associated actin-dependent regulator of chromatin subfamily A member 2 (P51531 whole entry): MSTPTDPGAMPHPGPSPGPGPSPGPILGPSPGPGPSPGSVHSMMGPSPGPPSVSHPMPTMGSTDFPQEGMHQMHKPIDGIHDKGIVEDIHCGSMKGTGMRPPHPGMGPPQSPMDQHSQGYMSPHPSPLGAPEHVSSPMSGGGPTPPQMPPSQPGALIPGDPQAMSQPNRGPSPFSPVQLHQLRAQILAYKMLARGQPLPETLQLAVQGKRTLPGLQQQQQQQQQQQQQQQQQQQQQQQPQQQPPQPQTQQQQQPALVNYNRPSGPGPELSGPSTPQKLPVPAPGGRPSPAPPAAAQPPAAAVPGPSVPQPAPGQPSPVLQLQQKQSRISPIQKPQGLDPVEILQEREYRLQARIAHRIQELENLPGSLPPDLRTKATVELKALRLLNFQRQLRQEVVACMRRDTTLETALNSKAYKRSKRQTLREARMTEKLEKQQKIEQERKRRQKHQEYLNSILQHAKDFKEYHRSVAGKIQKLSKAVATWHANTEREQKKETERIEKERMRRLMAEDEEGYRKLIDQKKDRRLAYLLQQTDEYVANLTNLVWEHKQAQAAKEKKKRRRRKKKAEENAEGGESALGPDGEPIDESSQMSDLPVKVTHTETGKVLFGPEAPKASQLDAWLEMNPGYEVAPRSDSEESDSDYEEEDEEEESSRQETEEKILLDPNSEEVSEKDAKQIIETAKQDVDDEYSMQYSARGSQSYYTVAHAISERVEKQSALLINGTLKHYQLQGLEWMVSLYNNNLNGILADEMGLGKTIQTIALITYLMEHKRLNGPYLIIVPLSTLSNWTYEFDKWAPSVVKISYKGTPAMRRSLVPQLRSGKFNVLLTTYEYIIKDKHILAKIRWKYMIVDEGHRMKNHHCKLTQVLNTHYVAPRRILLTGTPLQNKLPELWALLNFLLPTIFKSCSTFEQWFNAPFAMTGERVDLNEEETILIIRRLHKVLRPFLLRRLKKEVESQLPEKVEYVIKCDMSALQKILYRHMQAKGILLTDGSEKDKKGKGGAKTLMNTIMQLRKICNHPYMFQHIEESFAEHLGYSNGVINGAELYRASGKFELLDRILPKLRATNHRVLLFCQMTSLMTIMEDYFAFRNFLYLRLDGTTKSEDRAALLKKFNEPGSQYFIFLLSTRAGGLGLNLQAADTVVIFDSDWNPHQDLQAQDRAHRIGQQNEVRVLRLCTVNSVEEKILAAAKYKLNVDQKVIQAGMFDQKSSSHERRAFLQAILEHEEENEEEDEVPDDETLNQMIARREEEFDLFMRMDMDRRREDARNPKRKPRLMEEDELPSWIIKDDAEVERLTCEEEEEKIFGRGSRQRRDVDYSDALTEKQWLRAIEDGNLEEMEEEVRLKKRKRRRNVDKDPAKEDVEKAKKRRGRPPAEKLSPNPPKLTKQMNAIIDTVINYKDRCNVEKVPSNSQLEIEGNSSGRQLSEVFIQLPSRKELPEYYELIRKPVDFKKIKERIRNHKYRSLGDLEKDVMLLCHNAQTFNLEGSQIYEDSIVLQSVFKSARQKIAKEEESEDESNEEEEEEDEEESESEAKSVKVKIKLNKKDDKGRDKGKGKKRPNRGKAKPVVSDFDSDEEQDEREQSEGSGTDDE
Chain of ADP-ribosylation factor GTPase-activating protein 1 (Q62848 whole entry): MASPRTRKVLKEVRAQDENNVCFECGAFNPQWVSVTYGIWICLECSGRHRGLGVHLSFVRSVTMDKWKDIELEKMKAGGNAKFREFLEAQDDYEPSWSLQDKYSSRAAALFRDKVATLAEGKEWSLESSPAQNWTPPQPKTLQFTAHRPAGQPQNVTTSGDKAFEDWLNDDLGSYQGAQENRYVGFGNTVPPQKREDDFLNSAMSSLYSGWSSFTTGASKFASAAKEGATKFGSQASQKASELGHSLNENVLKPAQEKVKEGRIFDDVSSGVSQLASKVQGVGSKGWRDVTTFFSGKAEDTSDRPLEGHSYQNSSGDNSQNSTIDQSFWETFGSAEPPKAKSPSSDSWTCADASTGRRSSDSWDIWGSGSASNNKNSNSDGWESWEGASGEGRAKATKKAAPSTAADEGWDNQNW
Chain of Paired box protein Pax-8 (Q06710 whole entry): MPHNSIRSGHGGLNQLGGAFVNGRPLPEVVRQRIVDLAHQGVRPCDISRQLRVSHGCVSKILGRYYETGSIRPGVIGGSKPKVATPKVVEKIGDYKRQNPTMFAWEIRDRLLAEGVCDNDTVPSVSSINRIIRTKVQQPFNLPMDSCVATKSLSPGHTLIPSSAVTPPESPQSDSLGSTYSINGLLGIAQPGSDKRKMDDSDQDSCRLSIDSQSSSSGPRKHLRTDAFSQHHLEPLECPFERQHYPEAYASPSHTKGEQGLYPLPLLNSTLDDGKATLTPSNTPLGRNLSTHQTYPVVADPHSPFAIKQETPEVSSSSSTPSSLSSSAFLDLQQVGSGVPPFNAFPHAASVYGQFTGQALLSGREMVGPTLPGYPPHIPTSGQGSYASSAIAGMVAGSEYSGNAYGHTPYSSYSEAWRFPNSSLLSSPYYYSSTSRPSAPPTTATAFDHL

With `C[C@@H]1CN([C@H](C)CO)C(=O)c2cc(-c3cccc(C#N)c3)cnc2O[C@H]1CN(C)C(=O)C1CCC1` the AC50 [1] was 53.7 µM (active).
In the case of `O=C(N/N=C/c1cccc(Br)c1)c1ccc(Br)cc1`, the IC50 [2] is reported as 4.51 µM (active), the IC50 [3] is reported as 39.7 µM (inactive) and the IC50 [4] is reported as 12.2 µM (active). The IC50 [5] was 41.4 µM (inactive).
In the case of `CN(c1cccc(NC(=O)c2ccc(C(C)(C)C)cc2)c1)S(C)(=O)=O`, the AC50 (BHK-21) is reported as 22.6 µM (active) and the AC50 (A549) is reported as 23.1 µM (active).
With `Cc1ccc2nc3c(O)n(CC(=O)N4CC(C)CC(C)C4)ncc-3c2c1` (stereo unspecified) the IC50 [6] was 133 µM (inactive).
For `Cc1c(C(=O)OCC(=O)NCC2CCCO2)oc2ccccc12` (stereo unspecified), the IC50 [7] was > 80 µM (inactive) and the IC50 [8] was 11.9 µM (active).
In the case of `O=C1/C(=C/c2ccco2)Cc2ccccc21`, the EC50 [9] is reported as > 91.1 µM (inactive) and the EC50 [10] is reported as > 91.1 µM (inactive).
For `CC(CNC(=O)[C@@H](Cc1ccccc1)NC(=O)[C@H]1O[C@@H](n2cnc3c(=O)[nH]c(N)nc32)[C@H](O)[C@@H]1O)c1ccccc1` (stereo partly specified), the IC50 (cells [11]) was > 29.9 µM (inactive) and the EC50 (cells [12]) was > 29.9 µM (inactive).
For `Cc1cc(C(=O)NN=C(S)Nc2cccc(C(F)(F)F)c2)nn1C`, the IC50 [13] was > 122 µM (inactive).
For `C[C@@H]1CN([C@H](C)CO)C(=O)c2cc(NS(=O)(=O)c3ccc(Cl)cc3)ccc2O[C@@H](C)CCCCO[C@H]1CN(C)S(=O)(=O)c1ccc(Cl)cc1`, the AC50 (Paired box protein Pax-8) was 4.76 µM (active), the AC50 [14] was 54.6 µM (active) and the AC50 [15] was 15.9 µM (active). The AC50 [16] was 32.9 µM (active) and the AC50 [17] was 25.1 µM (active).
In the case of `C[C@@H]1CN([C@@H](C)CO)C(=O)c2c(c3ccccc3n2C)-c2ccccc2CO[C@@H]1CN(C)C(=O)Nc1ccc(F)cc1`, the AbsAC35 [18] is reported as 304.17 µM.
With `COc1ccc(NC(=O)N(C)C[C@@H]2OCCCC[C@H](C)Oc3ccc(NC(=O)C4CCCCC4)cc3C(=O)N([C@H](C)CO)C[C@@H]2C)cc1` the AC50 [19] was 27.8 µM (active) and the AC50 [20] was 2.67 µM (active).
With `O=C(Nc1cc(NCC2CCCO2)ncn1)c1ccccc1` (stereo unspecified) the IC50 (Protein Wnt-3a) was > 21.8 µM (inactive).
With `CNC(=S)N/N=C/c1cn(CCOc2ccc(OC)cc2)c2ccccc12` the IC50 [21] was > 69.5 µM (inactive) and the IC50 [22] was > 69.5 µM (inactive).
